Measurements taken from EP4745139A1, “COMPOUND FOR TREATING AND PREVENTING RESPIRATORY SYNCYTIAL VIRUS INFECTION DISEASES” (CSPC Zhongqi Pharmaceutical Technology (Shijiazhuang) Co., …, priority 2023, dated 2025).

Key:
RSV strain A2 = assay: Antiviral detection test against RSV strain A2 based on ELISA method (Hep-2 cells); type: cell-based, Respiratory Syncytial Virus; settings: for IC50: RSV A2 virus strain, Hep-2 cells, ELISA OD450; for AK0529 IC50 / IC50 of the compounds of the present invention: ratio of IC50 values against RSV A2 virus strain, control compound AK0529
Experimental: Test Example 1: Antiviral detection test of small molecules against RSV strain A2 based on ELISA method
• Source of cell line: Nanjing Kebai Biotechnology Co., Ltd. • Cell type: human laryngeal carcinoma epithelial cells Hep-2
• 96-well culture plate (Cat.No. 3610, Corning Costar); • Fetal bovine serum (Cat.No. 10099-141, GIBCO); • DMEM medium (Cat.No. 11995500BT, GIBCO); • Envision 2104 microplate reader.
• 1. Day 1: The Hep-2 cells were seeded into a 96-well plate at a density of 1×10^4 cells/well; • 2. Day 2: • A. Compound dilution: The compound in the first well was diluted to 9 µM, and 3-fold gradient dilution was performed, with a total of 10 gradients; • B. The Hep-2 cell plate prepared on Day 1 was taken out from the incubator, the supernatant was discarded, and 100 PFU/well/50 µL of the RSV A2 virus was added to each well. The plate was stood at 37°C in a 5% CO2 incubator for 2 hours, the supernatant was aspirated and discarded, and then 100 µL of the gradient-diluted compound or DMEM maintenance medium containing 2% FBS was added to each well; • 3. Day 5: • A. Add fixative: The gradient-diluted compound or medium was discarded from the wells, and 100 µL/well of fixative (4% paraformaldehyde) was added. The plate was stood at room temperature for 10 minutes, and then was washed once with 250 µL PBS; • B. 100 µL/well of a blocking solution was added, and the plate was incubated at 37°C in a 5% CO2 incubator for 30 minutes; • C. After incubation, the detection antibody (Anti RSV Fpro) was added at 0.3 µg/50 µL/well (6 µg/mL), and the plate was incubated at 37°C in a 5% CO2 incubator for 1 hour; • D. After incubation, the HRP secondary antibody was added (diluted 10,000-fold with 0.2% BSA), and the plate was incubated at 37°C in a 5% CO2 incubator for 1 hour; • E. After incubation, the wells were washed for 4 times with PBST, 250 µL/well, each washing was allowed to stand for 5 minutes, and the liquid in the wells was shaken off after completion of the washing; • F. 100 µL/well of a development solution was added, the plate was incubated at room temperature in the dark for 20 minutes, and 50 µL/well of a reaction termination solution was added. The plate was tapped gently to mix the solutions, and the absorbance at 450 nm was measured using the microplate reader. • 4. Data analysis • Inhibition rate of the compound against the virus = 100% - (SC - CC)/(VC - CC) × 100% • SC: OD450 value of the sample (cells + test compound + virus) • CC: OD450 value of the normal growing cell control (cells) • VC: OD450 value of the virus growth control (cells + virus)
The software Graphpad Prism 6 was used, and the calculation formula XY-analysis/Nonlinear regression (curve fit)/Dose response-Inhibition/log (inhibition) vs. response-Variable slope (four parameters) was adopted to fit the IC50 curve and calculate the IC50 value.

[1] = Pharmacokinetic experiment in mice after intragastric administration (plasma and lung tissue, LC/MS/MS); type: in vivo; settings: ICR, mouse, intragastric administration at 20 mg/kg; for concentration at 6 h: lung, oral, read-out: Lung tissue drug concentration at 6 h; for half-life: plasma, po
Experimental: The compounds of the present invention for intragastric administration were dissolved in a suitable solvent to form a clear solution or suspension.
Administration mode and dosage: The compounds of the present invention were administered intragastrically at 10 mg/kg or 20 mg/kg.
Number of animals: 3 ICR mice per group for intragastric administration.
Sample collection: For the intragastric administration group, 100 µL of blood was collected (using pre-heparinized 100 µL Capillary Blood Collection Tubes) from the orbital vein of mice at 0.25 h, 0.5 h, 1 h, 2 h, 4 h, and 6 h after administration and placed in heparin sodium anticoagulant tubes. Mice plasma samples were obtained by centrifugation at 3000 g for 10 minutes within 2 hours. For the intragastric administration group, clean blood was collected at 6-hour time point and then lung tissues were collected.
Sample treatment: Plasma and lung tissue homogenates were subjected to protein precipitation with methanol at a certain ratio, and the supernatant was taken and diluted with 50% methanol-water at a certain ratio for sample loading.
Sample detection: The drug concentration in plasma was detected by the LC/MS/MS method, and the drug-time curve was plotted. Pharmacokinetic parameters (such as T1/2(h)/AUC0-t) were calculated by non-compartmental model statistical moments to describe the pharmacokinetic behavior of the compounds in mice after administration.
Data processing: Pharmacokinetic parameters were calculated by WinNonlin.

RSV = assay: In vivo pharmacodynamic assay: mouse RSV infection model, lung viral load by plaque assay; set-up: species or system BALB/c mice; settings: 50 mpk, BID, 5 days administration; lung tissue, Day 5
Experimental: The compound of the present invention was dissolved in a suitable solvent to form a clear solution or suspension for intragastric administration. • Animals: BALB/c mice, 6-weeks old, female. • Establishment of in vivo RSV infection model: Mice were inoculated intranasally with the virus on Day 0, with an inoculation dose of 3.5 × 10^6 p.f.u. per mouse. • Grouping of animals: Animals were divided into a vehicle control group and an administration group, with 5 animals in each group.
Administration mode and dosage: The compound of the present invention was administered intragastrically at 100 mg/kg or 50 mg/kg, or the vehicle used for the compound of the present invention was administered intragastrically. The administration volume was 10 mL/kg.
Experimental procedure: Mice were inoculated intranasally with the virus on Day 0 at an inoculation dose of 3.5 × 10^6 p.f.u. per mouse. Mice were continuously treated with the compound of the present invention from Day 0 to Day 4 for 5 days at a dose of 50 mg/kg, once daily, via intragastric administration, with an administration volume of 10 mL/kg; the first administration was conducted 1 hour before virus inoculation. Alternatively, mice were treated once with the compound of the present invention on Day 0 at a dose of 100 mg/kg, via intragastric administration, with an administration volume of 10 mL/kg; the first administration was conducted 1 hour before virus inoculation. On Day 5, mice were euthanized, and lung tissue samples were collected. Animals were observed daily from Day 0 to Day 5, and the body weight, health status, and survival status were recorded.
Sample processing: After lungs were collected, they were quickly frozen in the HBSS* solution at a 10-fold weight-to-volume ratio (w:v (g:mL) = 1:10), and stored in a -80°C refrigerator for plaque assay to detect viral load.
Sample detection: Viral load in lung tissues was detected by plaque assay. […]

[2] = human respiratory syncytial virus

IC50 (RSV strain A2; [2])	AK0529 IC50 / IC50 of the compounds of the present invention (RSV strain A2)	concentration at 6 h [1]	half-life [1]	IC50 (RSV strain A2)	SMILES	log (RSV Viral Load) Mean (RSV)
< 10 nM	ratio ≥20	7170 ng/g	2.49 h		N[C@H]1CCN(c2nc(N3CCS(=O)(=NCC4CCO4)c4ccccc4C3)nc3ccc(C(F)F)cc23)C1 (stereo partly drawn) [Example 4-74, 4-(4-((S)-3-aminopyrrolidin-1-yl)-6-(difluoromethyl)quinazolin-2-yl)-1-((oxetan-2-ylmethyl)imino)-2,3,4,5-tetrahydro-benzo[f][1,4]thiazepine-1-oxide]	
< 10 nM	ratio ≥20	75800 ng/g	5.29 h		NC1CN(c2nc(N3CCS(=O)(=NC4CC4)c4ccccc4C3)nc3ccc(C(F)F)cc23)C1 (stereo not shown) [Example 4-17, 4-(4-(3-aminoazetidin-1-yl)-6-(difluoromethyl)quinazolin-2-yl)-1-(cyclopropylimino)-2,3,4,5-tetrahydro-benzo[f][1,4]thiazepine-1-oxide]	
< 10 nM	ratio ≥20	15400 ng/g	4.48 h		Cc1ccc2nc(N3CCS(=O)(=NC4CC4)c4ccccc4C3)nc(N[C@H]3CNC[C@@H]3F)c2c1 (stereo partly drawn) [Example 4-24, 1-(cyclopropylimino)-4-(4-(((3S,4S)-4-fluoropyrrolidin-3-yl)amino)-6-methylquinazolin-2-yl)-2,3,4,5-tetrahydrobenzo[f][1,4]thiazepine-1-oxide]	
< 10 nM		6010 ng/g	2.28 h		COCC(C)N=S1(=O)CCN(c2nc(N3CC[C@H](N)C3)c3cc(C)ccc3n2)Cc2ccccc21 (stereo partly shown) [Example 4-69]	
		1210 ng/g	1.55 h		Cc1ccc2nc(N3CCS(=O)(=O)c4ccccc4C3)nc(NCC3(N)COC3)c2c1 [AK0529, reference compound]	3.06
< 10 nM		8220 ng/g	2.16 h		Cc1ccc2nc(N3CCS(=O)(=NC4CCOC4)c4ccccc4C3)nc(N3CC[C@H](N)C3)c2c1 (stereo partly shown) [Example 4-67]	
< 10 nM		29700 ng/g	6.44 h		Cc1ccc2nc(N3CCS(=O)(=NC4CC4)c4ccccc4C3)nc(N3CC[C@@H](N)C3)c2c1 (stereo partly shown) [Example 4-12]	
< 10 nM	ratio ≥20	28800 ng/g			Cc1ccc2nc(N3CCS(=O)(=NC4CC4)c4ccccc4C3)nc(N3CC(N)C3)c2c1 (stereo not shown) [Example 4-76, 4-(4-(3-aminoazetidin-1-yl)-6-methylquinazolin-2-yl)-1-(cyclopropylimino)-2,3,4,5-tetrahydrobenzo[f][1,4]thiazepine-1-oxide]	
< 10 nM		19200 ng/g	2.33 h		Cc1ccc2nc(N3CCS(=O)(=NC4CCOC4)c4ccccc4C3)nc(N3CC[C@@H](N)C3)c2c1 (stereo partly shown) [Example 4-43]	
		5130 ng/g	1.61 h		Cc1ccc2nc(N3CCS(=O)(=NC4CC4)c4ccccc4C3)nc(NCC3(N)COC3)c2c1C (stereo not shown) [Example 4-15, 4-(4-(((3-aminooxetan-3-yl)methyl)amino)-5,6-dimethylquinazolin-2-yl)-1-(cyclopropylimino)-2,3,4,5-tetrahydro-benzo[f][1,4]thiazepine-1-oxide]	
		25300 ng/g	10.8 h		Cc1ccc2nc(N3CCS(=O)(=NC4CC4)c4ccccc4C3)nc(N3CC4C(N)C4C3)c2c1 (stereo not shown) [Example 4-8, 4-(4-(6-amino-3-azabicyclo[3.1.0]hexan-3-yl)-6-methylquinazolin-2-yl)-1-(cyclopropylimino)-2,3,4,5-tetrahydro-benzo[f][1,4]thiazepine-1-oxide]	
< 10 nM					Cc1ccc2nc(N3CCS(=O)(=NCCF)c4ccccc4C3)nc(NCC3(N)COC3)c2c1 (stereo not shown) [Example 4-5, 4-(4-(((3-aminooxetan-3-yl)methyl)amino)-6-methylquinazolin-2-yl)-1-((2-fluoroethyl)imino)-2,3,4,5-tetrahydrobenzo[f][1,4]thiazepine-1-oxide]	
< 10 nM		53100 ng/g			N[C@H]1CCN(c2nc(N3CCS(=O)(=NC4CC4)c4ccccc4C3)nc3ccc(C(F)F)cc23)C1 (stereo partly drawn) [Example 4-62, 4-(4-((S)-3-aminopyrrolidin-1-yl)-6-(difluoromethyl)quinazolin-2-yl)-1-(cyclopropylimino)-2,3,4,5-tetrahydro-benzo[f][1,4]thiazepine-1-oxide]	
				< 10 nM	Cc1ccc2nc(N3CCS(=O)(=NCC4CCO4)c4ccccc4C3)nc(N3CC[C@@H](N)C3)c2c1 (stereo partly shown) [Example 4-39]	
< 10 nM					Cc1ccc2nc(N3CCS(=O)(=NCC(F)F)c4ccccc4C3)nc(NCC3(N)COC3)c2c1 (stereo not shown) [Example 4-6, 4-(4-(((3-aminooxetan-3-yl)methyl)amino)-6-methylquinazolin-2-yl)-1-((2,2-difluoroethyl)imino)-2,3,4,5-tetrahydrobenzo[f][1,4]thiazepine-1-oxide]	
< 10 nM					Cc1ccc2nc(N3CCS(=O)(=NCC4CCOC4)c4ccccc4C3)nc(N3CC[C@H](N)C3)c2c1 (stereo partly shown) [Example 4-72]	
< 10 nM		5920 ng/g	6.21 h		Cc1ccc2nc(N3CCS(=O)(=NC4CC4)c4ccccc4C3)nc(N3CC(CN)C3)c2c1 (stereo not shown) [Example 4-9, 4-(4-(3-(aminomethyl)azetidin-1-yl)-6-methylquinazolin-2-yl)-1-(cyclopropylimino)-2,3,4,5-tetrahydro-benzo[f][1,4]thiazepine-1-oxide]	
